Consider ten molecules from ChEMBL document CHEMBL1201862, “PubChem BioAssay data set” (2004).

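These data come from cells grown in 96-well plates and exposed to compound for 48 hours at five concentrations. GI50 marks 50% less growth.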 The source made the active and inactive calls. No stated cut-off is given here; in the data, active = GI50 up to about 1.1 µM and inactive = higher.

Among the test systems are 786-0; A498; CAKI-1; CCRF-CEM; COLO 205; DU-145; HCT-15; HL-60; KM12; MDA-MB-435; Malme-3M; NCI-H23; NCI/ADR-RES; OVCAR-3; RXF 393; SF-268; SF-295; SW-620; U-251; UO-31.
Holding throughout (experiment): inhibition of tumour cell growth, NCI panel, 48 h

On to `N#[N+]c1cc2c(cc1Br)-c1ccccc1C2`, for which the GI50 in the assay on 786-0 was > 100 µM (inactive); in the assay on A498 it was > 100 µM (inactive); in the assay with CAKI-1, 97.5 µM (inactive); with CCRF-CEM it was 0.586 µM (active); in the assay with COLO 205, > 100 µM (inactive); in the assay with DU-145, > 100 µM (inactive). For the same molecule, the GI50 in the assay on HCT-15 is > 100 µM; with HL-60, 51.4 µM (inactive); with KM12 it was > 100 µM (inactive); in the assay with MDA-MB-435, 81.8 µM (inactive); with Malme-3M, 40 µM (inactive); in the assay on NCI-H23, > 100 µM (inactive). The GI50 with NCI/ADR-RES is > 100 µM (inactive); with OVCAR-3, 46.9 µM (inactive); with RXF 393, 78.3 µM (inactive); in the assay with SF-268 it was > 100 µM (inactive); with SF-295 it was > 100 µM (inactive); with SW-620, > 100 µM (inactive). Besides, the GI50 with U-251 is 82.2 µM (inactive); with UO-31 it was > 100 µM (inactive).

Turning to `O=C(C=P(c1ccccc1)(c1ccccc1)c1ccccc1)c1ccc(-c2cccc([N+](=O)[O-])c2)cc1`, the GI50 is 4.51 µM (inactive) in the assay with 786-0; 3.02 µM (inactive) with A498; 2.74 µM (inactive) in the assay on CAKI-1; 2.79 µM (inactive) with CCRF-CEM; 1.75 µM (inactive) in the assay with COLO 205; 6.07 µM (inactive) in the assay on DU-145. Further, the GI50 was 3.94 µM with HCT-15; 2.57 µM (inactive) with HL-60; 3.85 µM (inactive) with KM12; 2.39 µM (inactive) in the assay with MDA-MB-435; 3.48 µM (inactive) with Malme-3M; 4.36 µM (inactive) in the assay on NCI-H23. The GI50 in the assay on NCI/ADR-RES was 3.6 µM (inactive); in the assay with OVCAR-3 it was 2.98 µM (inactive); with RXF 393, 3.06 µM (inactive); with SF-268, 4.65 µM (inactive); in the assay on SF-295 it was 3.6 µM (inactive); with SW-620, 3.91 µM (inactive). Also, the GI50 in the assay with U-251 is 3.84 µM (inactive); in the assay with UO-31, 2.09 µM (inactive).

With `Cc1ccc2c(=O)c(-c3nnc(N)s3)c[nH]c2n1`, the GI50 in the assay with 786-0 was 55.2 µM (inactive); with A498, > 100 µM (inactive); with CAKI-1 it was > 100 µM (inactive); with CCRF-CEM, > 100 µM (inactive); in the assay on COLO 205 it was > 100 µM (inactive); in the assay on DU-145, > 100 µM (inactive). Besides, the GI50 in the assay on HCT-15 is > 100 µM; in the assay on HL-60, > 100 µM (inactive); in the assay with KM12, > 100 µM (inactive); in the assay on MDA-MB-435, > 100 µM (inactive); with Malme-3M, > 100 µM (inactive); with NCI-H23, > 100 µM (inactive). The GI50 is > 100 µM (inactive) with NCI/ADR-RES; > 100 µM (inactive) in the assay with OVCAR-3; 83.4 µM (inactive) in the assay with RXF 393; 36.3 µM (inactive) in the assay with SF-268; > 100 µM (inactive) with SF-295; > 100 µM (inactive) in the assay with SW-620. Besides, the GI50 is 67.1 µM (inactive) with U-251 and > 100 µM (inactive) in the assay on UO-31.

Regarding `COc1ccc2c(C=O)c3n(c(=O)c2c1OC)CCc1cc2c(cc1-3)OCO2`, the GI50 in the assay on 786-0 was 90.2 µM (inactive); with A498 it was > 100 µM (inactive); with CAKI-1 it was > 100 µM (inactive); in the assay with CCRF-CEM, > 100 µM (inactive); in the assay with COLO 205, 15.9 µM (inactive); in the assay on DU-145 it was 78.3 µM (inactive). The GI50 was 27.7 µM in the assay with HCT-15; 29.7 µM (inactive) with HL-60; 27.9 µM (inactive) in the assay with KM12; 22.5 µM (inactive) in the assay with MDA-MB-435; 80 µM (inactive) with Malme-3M; 27.2 µM (inactive) with NCI-H23. Besides, the GI50 was 18.6 µM (inactive) with NCI/ADR-RES; 80.5 µM (inactive) with OVCAR-3; 2.91 µM (inactive) in the assay on RXF 393; > 100 µM (inactive) in the assay with SF-268; 46 µM (inactive) in the assay with SF-295; 38.6 µM (inactive) in the assay on SW-620. In addition, the GI50 was 40.6 µM (inactive) in the assay on U-251 and 51.8 µM (inactive) in the assay on UO-31.

For `CC[P+](C#Cc1ccccc1)(c1ccccc1)c1ccccc1`, the GI50 was 1.57 µM (inactive) with 786-0; 8.17 µM (inactive) with A498; 9.66 µM (inactive) in the assay with CAKI-1; 0.358 µM (active) with CCRF-CEM; 1.06 µM (active) in the assay on COLO 205; 3.46 µM (inactive) in the assay with DU-145. In addition, the GI50 in the assay on HCT-15 was 3.19 µM; in the assay with HL-60 it was 0.324 µM (active); in the assay on KM12 it was 1.22 µM (inactive); with MDA-MB-435 it was 1.24 µM (inactive); in the assay on Malme-3M, 1.59 µM (inactive); in the assay on NCI-H23 it was 2.17 µM (inactive). Moreover, the GI50 in the assay on NCI/ADR-RES is 38.9 µM (inactive); in the assay on OVCAR-3, 1.31 µM (inactive); in the assay with RXF 393, 0.966 µM (active); in the assay with SF-268 it was 3.03 µM (inactive); in the assay with SF-295 it was 7.03 µM (inactive); in the assay on SW-620, 1.17 µM (inactive). Further, the results for the GI50 in the assay on U-251 and in the assay with UO-31 were 0.562 µM (active) and 6.93 µM (inactive), respectively.

With `CCc1c[n+]2c(cc1C1=CN3c4ccccc4[C@]45CCN6C/C(=C/CO)[C@H](C[C@H]64)[C@@H]([C@@H]1O)[C@H]35)-c1[nH]c3ccccc3c1CC2`, the GI50 in the assay with 786-0, in the assay on A498, in the assay with CAKI-1, in the assay on CCRF-CEM, in the assay on COLO 205 and with DU-145 was > 50 µM (inactive) each time. The GI50 in the assay on HCT-15 was > 50 µM; in the assay on HL-60, > 50 µM (inactive); with KM12 it was > 50 µM (inactive); with MDA-MB-435 it was > 50 µM (inactive); in the assay with Malme-3M, > 50 µM (inactive); in the assay with NCI-H23 it was > 50 µM (inactive). Further, the GI50 with NCI/ADR-RES, in the assay on OVCAR-3, in the assay on RXF 393, in the assay on SF-268, in the assay with SF-295 and in the assay with SW-620 was > 50 µM (inactive) each time. For the same molecule, the GI50 in the assay with U-251 and in the assay with UO-31 was > 50 µM (inactive) in each case.

`CC1=C2CC(C)(C)/C=C\C(=O)/C(C)=C\C3=C[C@H](C)C[C@]3(O2)C1=O`: the GI50 in the assay on 786-0 was 0.516 µM (active); in the assay on A498 it was 4.67 µM (inactive); in the assay on CAKI-1, 0.255 µM (active); in the assay with CCRF-CEM, 0.138 µM (active); in the assay on COLO 205, 0.902 µM (active); with DU-145, 4.67 µM (inactive). Besides, the GI50 in the assay on HCT-15 was 0.627 µM; in the assay with HL-60, 0.139 µM (active); in the assay on KM12, 2.21 µM (inactive); with MDA-MB-435 it was 0.706 µM (active); with Malme-3M it was 0.897 µM (active); with NCI-H23 it was 1.08 µM (active). The GI50 was 0.537 µM (active) with NCI/ADR-RES; 0.376 µM (active) in the assay on OVCAR-3; 0.597 µM (active) in the assay with RXF 393; 6.78 µM (inactive) in the assay on SF-268; 8.87 µM (inactive) in the assay with SF-295; 0.41 µM (active) in the assay with SW-620. Further, the GI50 was 3.86 µM (inactive) with U-251 and 1.18 µM (inactive) in the assay with UO-31.

Consider `COC1/C=C/OC2(C)Oc3c(C)c(O)c4c(c3C2=O)C(=O)C=C(NC(=O)/C(C)=C\C=C\C(C)C(OC=O)C(C)C(O)C(C)C(OC(C)=O)C1C)C4=O` (stereo not given), for which the GI50 is 8.24 µM (inactive) with 786-0; 18.6 µM (inactive) with A498; 12 µM (inactive) in the assay with CAKI-1; 2.03 µM (inactive) in the assay on CCRF-CEM; 4.59 µM (inactive) in the assay with COLO 205; 18.8 µM (inactive) in the assay on DU-145. In addition, the GI50 was 8.61 µM in the assay with HCT-15; 2.33 µM (inactive) with HL-60; 26.8 µM (inactive) with KM12; 16 µM (inactive) in the assay with MDA-MB-435; 13.4 µM (inactive) with Malme-3M; 14.4 µM (inactive) in the assay on NCI-H23. For the same molecule, the GI50 in the assay on NCI/ADR-RES is 17.5 µM (inactive); in the assay on OVCAR-3 it was 3.76 µM (inactive); in the assay with RXF 393, 7.67 µM (inactive); in the assay with SF-268, 17.7 µM (inactive); in the assay on SF-295, 23.3 µM (inactive); in the assay with SW-620, 4.04 µM (inactive). Further, the GI50 in the assay on U-251 was 20.6 µM (inactive); in the assay on UO-31, 16 µM (inactive).

Consider `COc1c(C)c(OC)c(C(=O)CC(C)C)c(OC)c1C`, for which the GI50 in the assay on 786-0, with A498, in the assay with CAKI-1, in the assay on CCRF-CEM, in the assay with COLO 205 and in the assay on DU-145 was > 100 µM (inactive) in each case. The GI50 with HCT-15 was 37.1 µM; in the assay with HL-60 it was 7.01 µM (inactive); in the assay with KM12, 74 µM (inactive); in the assay with MDA-MB-435, > 100 µM (inactive); with Malme-3M, > 100 µM (inactive); with NCI-H23 it was 83 µM (inactive). Moreover, the GI50 with NCI/ADR-RES is 52.6 µM (inactive); in the assay on OVCAR-3, > 100 µM (inactive); with RXF 393 it was > 100 µM (inactive); in the assay with SF-268, > 100 µM (inactive); in the assay with SF-295, > 100 µM (inactive); in the assay with SW-620, > 100 µM (inactive). The results for the GI50 with U-251 and in the assay with UO-31 were > 100 µM (inactive) and 49.9 µM (inactive), respectively.

In the case of `COP(C)(=O)C(Cc1c[nH]c2ccccc12)NC(=O)OCc1ccccc1` (stereo not given), the GI50 with 786-0, in the assay on A498, in the assay with CAKI-1, in the assay with CCRF-CEM, with COLO 205 and in the assay on DU-145 was > 100 µM (inactive) in each case. The GI50 in the assay with HCT-15 was > 100 µM; in the assay on HL-60, > 100 µM (inactive); in the assay on KM12, > 100 µM (inactive); in the assay on MDA-MB-435 it was > 100 µM (inactive); in the assay on Malme-3M, > 100 µM (inactive); in the assay on NCI-H23, > 100 µM (inactive). The GI50 in the assay with NCI/ADR-RES, in the assay on OVCAR-3, in the assay on RXF 393, in the assay on SF-268, in the assay with SF-295 and in the assay with SW-620 was > 100 µM (inactive) each time. Further, the GI50 in the assay with U-251 and with UO-31 was > 100 µM (inactive) each time.
